Counter-ions that a name gives are not always drawn.
Legend:
[1] = target: T1, NMDA receptor (Rattus norvegicus, UniProt P35439+Q00960); test: 3H-Ro 25-6981 binding (displacement, rat brain membranes); conditions: 5 nM 3H-Ro 25-6981, 2 hours at 4°C
T1 construct: Membranes were prepared by homogenization of the whole brain minus cerebellum and medulla oblongata; from tissue; host or cells: rat whole brain minus cerebellum and medulla oblongata, membranes
Method: 3H-Ro 25-6981 binding (Ro 25-6981 is [R-(R*,S*)]-a-(4-Hydroxy-phenyl)-b-methyl-4-(phenyl-methyl)-1-piperidine propanol)
(§1) Male Füllinsdorf albino rats weighing between 150-200 g were used. Membranes were prepared by homogenization of the whole brain minus cerebellum and medulla oblongata with a Polytron (10.000 rpm, 30 seconds), in 25 volumes of a cold Tris-HCl 50 mM, EDTA 10 mM, pH 7.1 buffer. The homogenate was centrifuged at 48.000 g for 10 minutes at 4°C. The pellet was resuspended using the Polytron in the same volume of buffer and the homogenate was incubated at 37°C for 10 minutes. After centrifugation the pellet was homogenized in the same buffer and frozen at -80°C for at least 16 hours but not more than 10 days. For the binding assay the homogenate was thawed at 37°C, centrifuged and the pellet was washed three times as above in a Tris-HCl 5 mM, pH 7.4 cold buffer. The final pellet was resuspended in the same buffer and used at a final concentration of 200 µg of protein/ml.
3H-Ro 25-6981 binding experiments were performed using a Tris-HCl 50 mM, pH 7.4 buffer. For displacement experiments 5 nM of 3H-Ro 25-6981 were used and non specific binding was measured using 10 µM of tetrahydroisoquinoline and usually it accounts for 10% of the total. The incubation time was 2 hours at 4°C and the assay was stopped by filtration on Whatmann GF/B glass fiber filters (Unifilter-96, Packard, Zürich, Switzerland). The filters were washed 5 times with cold buffer. The radioactivity on the filter was counted on a Packard Top-count microplate scintillation counter after addition of […] of microscint 40 (Canberra Packard S.A., Zürich, Switzerland).
The effects of compounds were measured using a minimum of 8 concentrations and repeated at least once. The pooled normalized values were analyzed using a non-linear regression calculation program which provide IC50 with their relative upper and lower 95% confidence limits (RS1, BBN, USA).

[2] = target: 3H-Prazosine binding; test: 3H-Prazosine binding (displacement, rat brain membranes); conditions: 0.2 nM 3H-Prazosine, 30 minutes at room temperature
Method: as §1, with “a Plytron” for “a Polytron”, “EDTA 10mM,” for “EDTA 10 mM,”, “Tris-HCl 5mM,” for “Tris-HCl 5 mM,”
3H-Prazosine binding experiments were performed using a Tris-HCl 50 mM, pH 7.4 buffer. For displacement experiments 0.2 nM of 3H-Prazosine were used and non specific binding was measured using 100 µM of Chlorpromazine. The incubation time was 30 minutes at room temperature and the assay was stopped by filtration on Whatman GF/B glass fiber filters (Unifilter-96, Canberra Packard S.A., Zürich, Switzerland). The filters were washed 5 times with cold buffer. The radioactivity on the filter was counted on a Packard Top-count microplate scintillation counter after addition of […] of microscint 40 (Canberra Packard S.A., Zürich, Switzerland). The effects of compounds were measured using a minimum of 8 concentrations and repeated at least once. The pooled normalized values were analyzed using a non-linear regression calculation program which provide IC50 with their relative upper and lower 95% confidence limits (RS1, BBN, USA).

[3] = target: T2, NR1C + NR2A (Rattus norvegicus, UniProt Q00959); test: Electrophysiology on recombinant NMDA receptors (voltage clamp, Xenopus laevis oocytes), NR1C + NR2A; format: cell-based; conditions: 10 µM compound; oocytes clamped to -80 mV; 2.7 µM Glu plus 0.9 µM Gly; mean of four to six oocytes
T2 construct: expressed in transfected cells; host or cells: Xenopus laevis oocytes, nuclear injection of pBC/CMV expression plasmids
Description: (§2) Electrophysiology on recombinant NMDA receptors
(§3) cDNA clones coding for the subunits NR1C and NR2A of the NMDA receptor (see Hollmann and Heinemann, 1994, Annu. Rev. Neurosci. 17:31 for nomenclature of NMDA receptor subunits) were isolated from a rat brain λgt11 cDNA library as published elsewhere (Sigel et al., 1994, J. Biol. Chem. 269:8204). The clone for the subunit NR2B of the rat brain NMDA receptor was obtained from S. Nakanishi (Kyoto, Japan). The cDNAs encoding rat NR1C, NR2A and NR2B were subcloned into the expression vector pBC/CMV (Bertocci et al., 1991, Proc. Natl. Acad. Sci. U.S.A. 88:1416), placing transcription of the cDNA under control of the human cytomegalovirus promoter. CsCl-purified expression plasmids were mixed in a 1:3 ratio of NR1C:NR2A or NR1C:NR2B in injection buffer (88 mM NaCI, 1 mM KCl, 15 mM HEPES, at pH 7.0). Oocytes of South African frogs (Xenopus laevis) were used for expressing either a combination of the NR1C and NR2A subunits or the NR1C and NR2B subunits. 12 to 120 pg of a 1:3 (NR1C:NR2B) mixture of the respective cDNA species were injected into the nucleus of every oocyte. On the following two days the ion current through the NMDA receptor channels was measured in voltage clamp experiments for the methods of cDNA expression in oocytes and voltage-clamping (see, e.g., Bertrand et al., 1991, Methods in Neurosciences 4:174). The membrane potential was clamped to -80 mV and the receptors were activated by applying a modified Ringer's solution containing the NMDA-receptor agonists L-glutamate (Glu) and glycine (Gly). Different agonist concentrations were chosen for either subunit combination to account for the different agonist sensitivities of the two types of receptors (2.7 µM Glu plus 0.9 µM Gly for NR1C + NR2A and 1.3 µM Glu plus 0.07 µM Gly for NR1C + NR2B). The agonists were applied for 15 s intervals once every 2.5 min by rapid superfusion of the oocyte with agonist containing solution and the amplitude of the agonist-evoked current was measured immediately before the end of each application. After a series of initial control applications the antagonist to be tested was added to both, the basal Ringer's and the agonist containing solution. The antagonist concentration applied to oocytes expressing the NR2A subunit was 10 µmol/l, whereas 0.1 µmol/l were applied to the NR2B expressing oocytes. Four to six oocytes were tested for every compound and NMDA receptor subtype. Oocytes were exposed to the compounds for 5 to 30 min depending on the time needed for reaching an equilibrium block of the NMDA receptor current. For every oocyte the decrease of the current amplitude was expressed as a percentage of the control current measured before application of the compound. Figures in the table are arithmetic mean values of these percentage values.

[4] = target: T3, NR1C + NR2B (Rattus norvegicus, UniProt P35439+Q00960); test: Electrophysiology on recombinant NMDA receptors (voltage clamp, Xenopus laevis oocytes), NR1C + NR2B; format: cell-based; conditions: 0.1 µM compound; oocytes clamped to -80 mV; 1.3 µM Glu plus 0.07 µM Gly; mean of four to six oocytes
T3 construct: expressed in transfected cells; host or cells: Xenopus laevis oocytes, nuclear injection of pBC/CMV expression plasmids
Description: as §2, §3

T2 sequence (Q00959 23-1464, other chains not shown): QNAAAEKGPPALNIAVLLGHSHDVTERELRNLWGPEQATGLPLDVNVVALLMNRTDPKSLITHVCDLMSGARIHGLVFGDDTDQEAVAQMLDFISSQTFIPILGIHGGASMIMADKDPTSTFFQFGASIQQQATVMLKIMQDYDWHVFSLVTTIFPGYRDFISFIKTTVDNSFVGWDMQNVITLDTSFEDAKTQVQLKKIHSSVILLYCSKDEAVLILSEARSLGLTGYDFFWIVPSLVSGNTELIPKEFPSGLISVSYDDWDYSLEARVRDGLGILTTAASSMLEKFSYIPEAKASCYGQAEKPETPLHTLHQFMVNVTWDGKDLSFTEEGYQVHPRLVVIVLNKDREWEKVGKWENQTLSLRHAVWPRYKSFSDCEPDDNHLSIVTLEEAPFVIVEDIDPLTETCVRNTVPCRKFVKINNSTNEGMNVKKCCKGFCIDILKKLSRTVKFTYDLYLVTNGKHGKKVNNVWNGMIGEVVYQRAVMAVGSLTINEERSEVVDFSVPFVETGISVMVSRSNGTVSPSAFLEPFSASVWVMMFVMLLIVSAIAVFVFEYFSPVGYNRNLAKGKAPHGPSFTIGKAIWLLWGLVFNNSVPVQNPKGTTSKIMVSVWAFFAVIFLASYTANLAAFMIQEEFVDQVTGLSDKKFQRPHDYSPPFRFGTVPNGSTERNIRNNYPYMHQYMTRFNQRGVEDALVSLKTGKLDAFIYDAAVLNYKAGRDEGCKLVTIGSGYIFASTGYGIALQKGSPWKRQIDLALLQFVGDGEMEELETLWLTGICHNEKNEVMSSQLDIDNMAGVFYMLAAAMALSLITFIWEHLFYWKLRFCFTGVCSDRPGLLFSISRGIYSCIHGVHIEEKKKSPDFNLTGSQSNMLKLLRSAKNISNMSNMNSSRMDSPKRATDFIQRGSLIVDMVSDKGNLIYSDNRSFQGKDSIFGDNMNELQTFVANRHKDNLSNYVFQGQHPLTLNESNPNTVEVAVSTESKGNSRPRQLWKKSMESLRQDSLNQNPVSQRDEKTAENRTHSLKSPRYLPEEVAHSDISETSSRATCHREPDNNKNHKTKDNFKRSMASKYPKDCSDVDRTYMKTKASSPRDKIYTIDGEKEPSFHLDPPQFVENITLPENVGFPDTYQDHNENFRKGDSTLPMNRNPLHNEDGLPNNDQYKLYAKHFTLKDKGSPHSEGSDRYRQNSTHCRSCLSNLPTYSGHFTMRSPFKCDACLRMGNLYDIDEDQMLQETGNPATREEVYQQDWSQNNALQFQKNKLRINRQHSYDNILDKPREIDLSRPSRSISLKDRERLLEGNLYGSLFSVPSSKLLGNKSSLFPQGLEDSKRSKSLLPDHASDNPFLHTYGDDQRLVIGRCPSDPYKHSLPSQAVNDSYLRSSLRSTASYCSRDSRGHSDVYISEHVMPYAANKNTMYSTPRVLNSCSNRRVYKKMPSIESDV
T1 sequence (Q00960 27-1482, other chains not shown): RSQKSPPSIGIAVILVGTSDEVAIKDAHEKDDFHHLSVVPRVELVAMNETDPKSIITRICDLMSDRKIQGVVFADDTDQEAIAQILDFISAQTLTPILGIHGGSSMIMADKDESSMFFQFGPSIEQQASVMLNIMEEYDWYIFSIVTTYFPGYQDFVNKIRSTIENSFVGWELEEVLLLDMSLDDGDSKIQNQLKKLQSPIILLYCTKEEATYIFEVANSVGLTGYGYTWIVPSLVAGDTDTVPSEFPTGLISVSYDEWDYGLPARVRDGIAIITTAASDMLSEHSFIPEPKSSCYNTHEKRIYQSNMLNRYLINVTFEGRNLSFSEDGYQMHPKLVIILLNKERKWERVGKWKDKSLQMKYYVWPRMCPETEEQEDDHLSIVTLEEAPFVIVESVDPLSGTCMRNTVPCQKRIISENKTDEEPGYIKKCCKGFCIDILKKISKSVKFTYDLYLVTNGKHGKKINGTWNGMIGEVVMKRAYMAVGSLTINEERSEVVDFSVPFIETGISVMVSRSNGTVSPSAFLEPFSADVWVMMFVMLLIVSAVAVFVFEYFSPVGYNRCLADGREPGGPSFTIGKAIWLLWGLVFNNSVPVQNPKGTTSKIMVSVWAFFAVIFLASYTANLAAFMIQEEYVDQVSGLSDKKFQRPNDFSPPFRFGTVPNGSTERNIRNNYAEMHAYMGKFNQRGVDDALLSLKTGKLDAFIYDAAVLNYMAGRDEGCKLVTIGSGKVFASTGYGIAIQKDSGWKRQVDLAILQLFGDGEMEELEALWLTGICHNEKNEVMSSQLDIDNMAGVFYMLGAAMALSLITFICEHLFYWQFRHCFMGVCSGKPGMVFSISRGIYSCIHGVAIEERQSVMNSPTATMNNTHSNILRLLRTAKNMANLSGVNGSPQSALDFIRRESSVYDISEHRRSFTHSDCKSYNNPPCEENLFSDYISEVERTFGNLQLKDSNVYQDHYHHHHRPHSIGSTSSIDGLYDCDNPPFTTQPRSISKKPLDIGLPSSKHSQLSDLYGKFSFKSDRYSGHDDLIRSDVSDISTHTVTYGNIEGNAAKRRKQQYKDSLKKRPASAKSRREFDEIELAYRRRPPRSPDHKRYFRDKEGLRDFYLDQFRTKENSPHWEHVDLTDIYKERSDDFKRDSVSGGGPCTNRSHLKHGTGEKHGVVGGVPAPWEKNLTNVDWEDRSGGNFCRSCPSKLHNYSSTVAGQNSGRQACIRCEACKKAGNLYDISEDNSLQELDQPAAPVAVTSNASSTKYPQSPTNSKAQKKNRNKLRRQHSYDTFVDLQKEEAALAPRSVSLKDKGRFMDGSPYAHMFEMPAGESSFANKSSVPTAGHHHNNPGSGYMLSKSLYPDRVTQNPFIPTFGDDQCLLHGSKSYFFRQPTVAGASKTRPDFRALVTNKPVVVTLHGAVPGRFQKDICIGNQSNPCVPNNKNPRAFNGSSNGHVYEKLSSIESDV
T3 sequence (Q00960 27-1482, other chains not shown): as above

SMILES	IC50 [2]	IC50 [1]	Electrophysiology NR1C + NR2A % block by 10 µM [3]	Electrophysiology NR1C + NR2B % block by 0.1 µM [4]
Cc1ccc(CC2(O)CCN(CC3Cc4cc(O)ccc4O3)CC2)cc1 (racemic) [Example 2, (RS)-1-(5-Hydroxy-2,3-dihydro-benzofuran-2-ylmethyl)-4-(4-methyl-benzyl)-piperidin-4-ol hydrochloride]	3200 nM	20 nM		
Oc1ccc2c(c1)CC(CN1CCC(O)(Cc3ccccc3)CC1)O2 (racemic) [Example 4, (RS)-4-Benzyl-1-(5-hydroxy-2,3-dihydro-benzofuran-2-ylmethyl)-piperidin-4-ol hydrochloride]	2500 nM	50 nM		
Oc1ccc2c(c1)CC(CN1CCC(O)(Cc3ccc(F)cc3)CC1)O2 (racemic) [Example 5, (RS)-4-(4-fluoro-benzyl)-1-(5-hydroxy-2,3-dihydro-benzofuran-2-ylmethyl)-piperidin-4-ol hydrochloride]	4000 nM	40 nM		
CCc1ccc(CC2(O)CCN(CC3Cc4cc(O)ccc4O3)CC2)cc1.Cl (racemic) [Example 7, (RS)-4-(4-Ethyl-benzyl)-1-(5-hydroxy-2,3-dihydro-benzofuran-2-ylmethyl)-piperidin-4-ol hydrochloride]	6000 nM	12 nM	12%	89%
Cc1ccc(CC2(O)CCN(CC3Cc4ccc(O)cc4C3)CC2)cc1 (racemic) [Example 19, (RS)-1-(5-Hydroxy-indan-2-ylmethyl)-4-(4-methyl-benzyl)-piperidin-4-ol]	3200 nM	55 nM		
Cc1ccc(CC2(O)CCN(C[C@@H]3Cc4cc(O)ccc4O3)CC2)cc1.Cl [Example 13, (S)-1-(5-Hydroxy-2,3-dihydro-benzofuran-2-ylmethyl)-4-(4-methyl-benzyl)-piperidin-4-ol hydrochloride]	6000 nM	14 nM	8%	93%
Cl.Oc1ccc2c(c1)C[C@@H](CN1CCC(O)(Cc3ccc(Cl)cc3)CC1)O2 [Example 14, (S)-1-(5-Hydroxy-2,3-dihydro-benzofuran-2-ylmethyl)-4-(4-chloro-benzyl)-piperidin-4-ol hydrochloride]	6000 nM	5 nM	9%	90%
Cc1ccc(CC2(O)CCN(CC3Cc4cc(O)ccc4C3O)CC2)cc1 (stereo not drawn) [Example 16, (1RS,2RS) and (1RS,2SR)-2-[4-Hydroxy-4-(4-methyl-benzyl)-piperidine-1-ylmethyl]-indan-1,5-diol fumarate salt]	5000 nM	23 nM	6%	86%

Second part, led by results:

IC50 [2]	SMILES	IC50 [1]	Electrophysiology NR1C + NR2A % block by 10 µM [3]	Electrophysiology NR1C + NR2B % block by 0.1 µM [4]
6600 nM	Cc1ccc(CC2(O)CCN(CC3Cc4cc(O)ccc4N3)CC2)cc1 (racemic) [Example 21, (RS)-2-[4-Hydroxy-4-(4-methyl-benzyl)-piperidin-1-ylmethyl]-2,3-dihydro-1H-indol-5-ol]	55 nM		
6500 nM	CS(=O)(=O)Nc1ccc2c(c1)CC(CN1CCC(O)(Cc3ccc(Cl)cc3)CC1)O2 (racemic) [Example 22, (RS)-N-{2-[4-(4-chloro-benzyl)-4-hydroxy-pipiridin-1-ylmethyl]-2,3-dihydroxybenzofuran-5-yl}methane sulfonamide hydrochloride]			
2300 nM	Cc1ccc(CC2(O)CCN(CC3Cc4cc(NS(C)(=O)=O)ccc4O3)CC2)cc1 (racemic) [Example 23, (RS)-N(2-[4-hydroxy-4-(4-methyl-benzyl)-piperidin-1-ylmethyl]-2,3-dihydrobenzofuran-5-yl]-methane sulfonamide hydrochloride]	40 nM		
6000 nM	Cc1ccc(CC2(O)CCN(C[C@H]3CCc4cc(O)ccc4[C@@H]3O)CC2)cc1.O=C(O)/C=C/C(=O)O (racemic) [Example 27, (1RS, 2RS)-1-(1,6-Dihydroxy-1,2,3,4-tetrahydro-naphthalen-2-ylmethyl)-4-(4-methyl-benzyl)-piperidin-4-ol fumarate salt]		15%	91%
11000 nM	Oc1ccc2c(c1)CC[C@H](CN1CCC(O)(Cc3ccccc3)CC1)[C@H]2O (racemic) [Example 29, (1RS,2RS)-2-(4-Benzyl-4-hydroxy-piperidin-1-yl-methyl)-6-hydroxy-1,2,3,4-tetrahydro-naphthalen-1-ol]	23 nM		
800 nM	Cc1ccc(CC2(O)CCN(CC3CCc4cc(O)ccc4C3)CC2)cc1 (racemic) [Example 30, (RS)-1-(6-Hydroxy-1,2,3,4-tetrahydro-naphthalen-2-ylmethyl)-4-(4-methyl-benzyl)-piperidin-4-ol hydrochloride]	20 nM		

Reference: patent EP0846683B1, “4-Hydroxy-piperidine derivatives” (F. HOFFMANN-LA ROCHE AG, priority 1996, dated 1998)
